This note sets out measurements from ChEMBL document CHEMBL4765314, “Rational design and biological evaluation of gemfibrozil modified Xenopus GLP-1 derivatives as long-acting hypoglycemic agents” (Eur J Med Chem, 2020).

The nature of series [1]: Hepatotoxicity in ICR mouse assessed as effect on alanine aminotransferase level at 100 nmol/kg, sc administered once daily for 2 weeks. Format: toxicity, organism-based. Conditions: in vivo, 336 h.
Series [2] in a line: Renal toxicity in ICR mouse assessed as effect on blood urea nitrogen level at 100 nmol/kg, sc administered once daily for 2 weeks. The series is classed as organism-based. Conditions: in vivo, 336 h.
A short description of series [3]: Renal toxicity in ICR mouse assessed as effect on serum creatinine level at 100 nmol/kg, sc administered once daily for 2 weeks. Format: organism-based. Conditions: in vivo, 336 h.
Series [4] is described as follows: Hepatotoxicity in ICR mouse assessed as effect on aspartate aminotransferase level at 100 nmol/kg, sc administered once daily for 2 weeks. The series is classed as toxicity, organism-based. Conditions: in vivo, 336 h.
The subject of series [5] is Mus musculus. The series can be described thus: Improvement in glucose tolerance in db/db mouse at 25 nmol/kg, sc administered every 2 days for 42 days by OGTT. The series is classed as functional, organism-based. Conditions: time 42.0 day.
Series [6] has as its system Mus musculus. Nature of the series: Reduction in serum triglyceride in C57BL/6 mouse model of high-fat diet induced obesity at 25 nmol/kg, sc administered every two days for 21 days. The series is classed as functional, organism-based. Conditions: time 21.0 day.
Series [7] has as its system Mus musculus. Nature of the series: Anorectic effect in normal chow diet fed C57BL/6 mouse assessed as reduction in food intake at 25 nmol/kg, sc administered every two for 21 days. Conditions: time 21.0 day. Format: functional, organism-based.
Series [8] has as its system Mus musculus. Nature of the series: Increase in serum HDL level in C57BL/6 mouse model of high-fat diet induced obesity at 25 nmol/kg, sc administered every two days for 21 days. The series is classed as functional, organism-based. Conditions: time 21.0 day.
Series [9] concerns Mus musculus. Nature of the series: Effect in normal chow diet fed C57BL/6 mouse assessed as reduction in body weight increase at 25 nmol/kg, sc administered every two days for 21 days (reference value: 10.8%). Conditions: time 21.0 day. The series is classed as functional, organism-based. On the set-up: scale not given: the % may be the effect or the level left.
The subject of series [10] is Mus musculus. The series can be described thus: Hypoglycemic activity in 16 hrs fasted db/db mouse assessed as reduction in blood glucose level at 25 nmol/kg, ip treated 30 mins before glucose challenge and measured at 0 to 24 hrs by multiple OGTT. Format: functional, organism-based. Conditions: time 1470.0 min.
Series [11] deals with Mus musculus. The series can be described thus: Reduction in HbA1c level in db/db mouse at 25 nmol/kg, sc administered every two days for 42 days by OGTT. Format: functional, organism-based. Conditions: time 42.0 day.
The test system of series [12] is Mus musculus. Nature of the series: Reduction in body weight in C57BL/6 mouse model of diet induced obesity at 25 nmol/kg, sc administered every two days for 21 days relative to control. Conditions: time 21.0 day. On the set-up: scale not given: the % may be the effect or the level left. The series is classed as functional, organism-based.
The test system of series [13] is Mus musculus. The series can be described thus: Inhibition of fat mass gain in normal chow diet fed C57BL/6 mouse at 25 nmol/kg, sc administered every two days for 21 days. The series is classed as functional, organism-based. Conditions: time 21.0 day.
In series [14] the test system is Mus musculus. Nature of the series: Inhibition of solid-phase gastric emptying in 12 hrs fasted ICR mouse assessed reduction in gastric emptying rate at 25 nmol/kg, ip allowed for food intake 1 hrs and measured after 4 hrs […]. On the set-up: scale not given: the % may be the effect or the level left. The series is classed as functional.
Series [15] has as its system Mus musculus. Nature of the series: Improvement in glucose tolerance in db/db mouse assessed as time for superior hypoglycemic effect by measuring glucose AUC at 25 nmol/kg, sc administered twice daily for 42 days by OGTT. Format: functional, organism-based. Conditions: time 42.0 day.
Series [16] concerns Mus musculus. The series can be described thus: Hypoglycemic activity in normal chow diet fed C57BL/6 mouse assessed as fasting blood glucose at 25 nmol/kg, sc administered every two for 21 days. Format: functional, organism-based. Conditions: time 21.0 day.
The test system of series [17] is Mus musculus. The series can be described thus: Reduction in serum total cholesterol in C57BL/6 mouse model of high-fat diet induced obesity at 25 nmol/kg, sc administered every two days for 21 days. Format: functional, organism-based. Conditions: time 21.0 day.
The subject of series [18] is Mus musculus. Nature of the series: Reduction in serum LDL level in C57BL/6 mouse model of high-fat diet induced obesity at 25 nmol/kg, sc administered every two days for 21 days. Conditions: time 21.0 day. Format: functional, organism-based.
Series [19] concerns Mus musculus. The series can be described thus: Reduction in body fat content in C57BL/6 mouse model of high-fat diet induced obesity at 25 nmol/kg, sc administered every two days for 21 days relative to control. The series is classed as functional, organism-based. On the set-up: scale not given: the % may be the effect or the level left. Conditions: time 21.0 day.
The subject of series [20] is Mus musculus. The series can be described thus: Improvement in glucose tolerance in standard chow diet fed C57BL/6 mouse at 25 nmol/kg, sc administered every 2 days for 21 days. The series is classed as functional, organism-based. Conditions: time 21.0 day.

Calls of active or inactive are those of the source. The calls are words filed in the database; no cut-off is given here.

Consider SEMAGLUTIDE [listing 1 of 2 here], for which the Activity result in [1], in series [2], in [3] and in series [4] was “Non-Toxic” throughout.

Take SEMAGLUTIDE [listing 2 of 2 here]: the outcome in series [5], in series [6], in series [7], in [10], in series [11] and in series [13] was Active. In addition, the result in [17] and in series [18] was Active. For the same sequence, the outcome in [8], in series [16] and in [20] was inactive. In addition, the Activity in series [9] came to 6.7%; in series [12], 13.4%; in series [14], 52%; in [19], 25.5%. In addition, in series [15], the TIME came to 1680 h.
